Source: patent US20240217978A1 (CHONG KUN DANG PHARMACEUTICAL CORP., priority 2021, published 2024)

Molecular target: human adenosine A2a receptor (Homo sapiens (Human), UniProt P29274)
Experiment: A2a receptor binding affinity, [3H]-NECA radioligand binding test
Conditions: [3H]-NECA 37 nM; membrane from HEK-293 cells transfected with human adenosine A2a receptor
How it was run: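 IC50 values (μM) come from displacement of [3H]-NECA, used at 37 nM final, on human A2a receptor membranes from transfected HEK-293 cells. Incubation lasted one hour at room temperature in Tris/MgCl2/EDTA buffer, pH 7.4; filter-bound radioactivity was counted by scintillation.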

Sequence of human adenosine A2a receptor (P29274 whole entry): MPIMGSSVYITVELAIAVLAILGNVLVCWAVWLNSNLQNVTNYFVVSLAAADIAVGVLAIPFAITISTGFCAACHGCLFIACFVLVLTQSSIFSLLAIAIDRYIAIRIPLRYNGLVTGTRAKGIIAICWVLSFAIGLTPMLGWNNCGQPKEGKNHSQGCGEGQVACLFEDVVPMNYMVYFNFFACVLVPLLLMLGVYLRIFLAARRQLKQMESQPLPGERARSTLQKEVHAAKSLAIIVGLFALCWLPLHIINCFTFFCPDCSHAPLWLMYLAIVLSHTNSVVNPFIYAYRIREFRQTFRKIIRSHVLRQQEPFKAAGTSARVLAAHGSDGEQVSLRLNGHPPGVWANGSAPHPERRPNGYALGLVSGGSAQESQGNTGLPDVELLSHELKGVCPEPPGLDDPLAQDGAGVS

| IC50 | Compound |
| --- | --- |
| 0.012 µM | CCCCN1CCN(C(=O)[C@H](CC(C)C)Nc2nc(N)n3nc(-c4ccco4)nc3n2)CC1 [Example 175, (S)-2-((7-amino-2-(furan-2-yl)-[1,2,4]triazolo[1,5-a][1,3,5]triazin-5-yl)amino)-1-(4-butylpiperazin-1-yl)-4-methylpentan-1-one] |
| 0.001 µM | Nc1nc(N[C@H](C(=O)N2CCN(c3ncccn3)CC2)C2CCOCC2)nc2nc(-c3ccco3)nn12 [Example 241, (S)-2-((7-amino-2-(furan-2-yl)-[1,2,4]triazolo[1,5-a][1,3,5]triazin-5-yl)amino)-1-(4-(pyrimidin-2-yl)piperazin-1-yl)-2-(tetrahydro-2H-pyran-4-yl)ethan-1-one] |
| 0.0001 µM | Nc1nc(N2CCC[C@H]2C(=O)N2CCN(c3ccccc3C(F)(F)F)CC2)nc2nc(-c3ccco3)nn12 [Example 150, (S)-(1-(7-amino-2-(furan-2-yl)-[1,2,4]triazolo[1,5-a][1,3,5]triazin-5-yl)pyrrolidin-2-yl)(4-(2-(trifluoromethyl)phenyl)piperazin-1-yl)methanone] |
| 0.014 µM | Cc1ccc(-c2nc3nc(N4CCC[C@H]4C(=O)N4CCN(C5CCCCC5)CC4)nc(N)n3n2)o1 [Example 84, (S)-(1-(7-amino-2-(5-methylfuran-2-yl)-[1,2,4]triazolo[1,5-a][1,3,5]triazin-5-yl)pyrrolidin-2-yl)(4-cyclohexylpiperazin-1-yl)methanone] |
| 0.005 µM | COCCN1CCC(C2CCN(C(=O)[C@@H]3CCN3c3cc4nc(-c5ccco5)nn4c(N)n3)CC2)CC1 [Example 380, (S)-(1-(5-amino-2-(furan-2-yl)-[1,2,4]triazolo[1,5-c]pyrimidin-7-yl)azetidin-2-yl)(1′-(2-methoxyethyl)-[4,4′-bipiperidin]-1-yl)methanone] |
| 0.009 µM | CCCCN1CCN(C(=O)[C@@H]2CCCN2c2cc3nc(-c4ccco4)nn3c(N)n2)CC1 [Example 361, (S)-(1-(5-amino-2-(furan-2-yl)-[1,2,4]triazolo[1,5-c]pyrimidin-7-yl)pyrrolidin-2-yl)(4-butylpiperazin-1-yl)methanone] |
| 0.012 µM | CCC(O)(CC)CN1CCN(C(=O)[C@@H]2CCCN2c2nc(N)n3nc(-c4ccc(C)o4)nc3n2)CC1 [Example 88, (S)-(1-(7-amino-2-(5-methylfuran-2-yl)-[1,2,4]triazolo[1,5-a][1,3,5]triazin-5-yl)pyrrolidin-2-yl)(4-(2-ethyl-2-hydroxybutyl)piperazin-1-yl) methanone] |
| 0.011 µM | Nc1nc(N2CCC[C@H]2C(=O)N2CCC(C(=O)Nc3ccccn3)CC2)nc2nc(-c3ccco3)nn12 [Example 79, 1-((7-amino-2-(furan-2-yl)-[1,2,4]triazolo[1,5-a][1,3,5]triazin-5-yl)-L-prolyl)-N-(pyridin-2-yl)piperidin-4-carboxamide] |
| 0.01 µM | Cn1cnc(C(=O)N2CCN(C(=O)[C@@H]3CCCN3c3nc(N)n4nc(-c5ccco5)nc4n3)CC2)c1 [Example 102] |
| 0.01 µM | Nc1nc(N2CC[C@H]2C(=O)N2CCN(CCCC(F)(F)F)CC2)nc2nc(-c3ccco3)nn12 [Example 264, (S)-(1-(7-amino-2-(furan-2-yl)-[1,2,4]triazolo[1,5-a][1,3,5]triazin-5-yl)azetidin-2-yl)(4-(4,4,4-trifluorobutyl)piperazin-1-yl)methanone] |
| 0.02 µM | Nc1nc(N[C@@H](CN2CCOCC2)C(=O)N2CCN(c3ccc(F)cc3F)CC2)nc2nc(-c3ccco3)nn12 [Example 273] |

Further lines, the compound ahead of its results:

| Compound | IC50 |
| --- | --- |
| Nc1nc(N2CCC[C@H]2C(=O)N2CCN(Cc3ccc(F)cc3)CC2)nc2nc(-c3ccco3)nn12 [Example 45, (S)-(1-(7-amino-2-(furan-2-yl)-[1,2,4]triazolo[1,5-a][1,3,5]triazin-5-yl)pyrrolidin-2-yl)(4-(4-fluorobenzyl)piperazin-1-yl)methanone] | 0.019 µM |
| Nc1nc(N2CCC[C@H]2C(=O)N2CC3CCC(C2)N3CC(F)(F)F)nc2nc(-c3ccco3)nn12 [Example 204, ((S)-1-(7-amino-2-(furan-2-yl)-[1,2,4]triazolo[1,5-a][1,3,5]triazin-5-yl)pyrrolidin-2-yl)(8-(2,2,2-trifluoroethyl)-3,8-diazabicyclo[3.2.1]octan-3-yl)methanone] | 0.013 µM |
| Nc1nc(N2CCC[C@H]2C(=O)N2CCN(C(=O)NC3CCCCC3)CC2)nc2nc(-c3ccco3)nn12 [Example 117, 4-((7-amino-2-(furan-2-yl)-[1,2,4]triazolo[1,5-a][1,3,5]triazin-5-yl)-L-prolyl)-N-cyclohexylpiperazin-1-carboxamide] | 0.011 µM |
| CC(C)(O)CC(=O)N1CCN(C(=O)[C@@H](Nc2nc(N)n3nc(-c4ccco4)nc3n2)C2CC2)CC1 [Example 370, (S)-1-(4-(2-((7-amino-2-(furan-2-yl)-[1,2,4]triazolo[1,5-a][1,3,5]triazin-5-yl)amino)-2-cyclopropylacetyl)piperazin-1-yl)-3-hydroxy-3-methylbutan-1-one] | 0.004 µM |
| C[C@H](Nc1nc(N)n2nc(-c3ccco3)nc2n1)C(=O)N1CCN(CC(F)(F)F)CC1 [Example 25, (S)-2-((7-amino-2-(furan-2-yl)-[1,2,4]triazolo[1,5-a][1,3,5]triazin-5-yl)amino)-1-(4-(2,2,2-trifluoroethyl)piperazin-1-yl)propan-1-one] | 0.01 µM |
| Cc1ccc(-c2nc3nc(N4CC[C@H]4C(=O)N4CCN(CC(F)(F)F)CC4)nc(N)n3n2)o1 [Example 220, (S)-(1-(7-amino-2-(5-methylfuran-2-yl)-[1,2,4]triazolo[1,5-a][1,3,5]triazin-5-yl)azetidin-2-yl)(4-(2,2,2-trifluoroethyl)piperazin-1-yl)methanone] | 0.015 µM |
| Cc1ccc(-c2nc3nc(N4CCC[C@H]4C(=O)N4CCN(c5ccccc5)CC4)nc(N)n3n2)o1 [Example 199, (S)-(1-(7-amino-2-(5-methylfuran-2-yl)-[1,2,4]triazolo[1,5-a][1,3,5]triazin-5-yl)pyrrolidin-2-yl)(4-phenylpiperazin-1-yl)methanone] | 0.002 µM |
| Nc1nc(N2CCC[C@H]2C(=O)N2CCN(CC3(C(F)(F)F)CCCCC3)CC2)nc2nc(-c3ccco3)nn12 [Example 286] | 0.002 µM |
| COCCN1CCN(C2CN(C(=O)[C@@H]3CCCN3c3nc(N)n4nc(-c5ccco5)nc4n3)C2)CC1 [Example 405, (S)-(1-(7-amino-2-(furan-2-yl)-[1,2,4]triazolo[1,5-a][1,3,5]triazin-5-yl)pyrrolidin-2-yl)(3-(4-(2-methoxyethyl)piperazin-1-yl)azetidin-1-yl)methanone] | 0.071 µM |
| CC(C)(C)[C@H](Nc1nc(N)n2nc(-c3ccco3)nc2n1)C(=O)N1CCN(c2ccc(F)cc2F)CC1 [Example 165, (S)-2-((7-amino-2-(furan-2-yl)-[1,2,4]triazolo[1,5-a][1,3,5]triazin-5-yl)amino)-1-(4-(2,4-difluorophenyl)piperazin-1-yl)-3,3-dimethylbutan-1-one] | 0.0006 µM |
| Nc1nc(N2CC[C@H]2C(=O)N2CCN(c3ncccn3)CC2)nc2nc(-c3ccco3)nn12 [Example 242, (S)-(1-(7-amino-2-(furan-2-yl)-[1,2,4]triazolo[1,5-a][1,3,5]triazin-5-yl)azetidin-2-yl)(4-(pyrimidin-2-yl)piperazin-1-yl)methanone] | 0.009 µM |
| Nc1nc(N2CCC[C@@H]2C(=O)N2CCN(Cc3ccc(F)cc3F)CC2)nc2nc(-c3ccco3)nn12 [Example 96, (R)-(1-(7-amino-2-(furan-2-yl)-[1,2,4]triazolo[1,5-a][1,3,5]triazin-5-yl)pyrrolidin-2-yl)(4-(2,4-difluorobenzyl)piperazin-1-yl)methanone] | 1.63 µM |
| Cc1ccc(-c2nc3nc(N4CC[C@H]4C(=O)N4CCN(Cc5ccccc5)CC4)nc(N)n3n2)o1 [Example 218, (S)-(1-(7-amino-2-(5-methylfuran-2-yl)-[1,2,4]triazolo[1,5-a][1,3,5]triazin-5-yl)azetidin-2-yl)(4-benzylpiperazin-1-yl)methanone] | 0.01 µM |
